# Experimental data as given in patent US20100317731A1, “Hyperhidrosis treatment” (priority 2009, published 2010).
# How the values were obtained:
# Type in all cases: in vivo, human
# [1] = system: patients with excessive sweating (drug-induced hyperhidrosis); assay: Clinical examples: single patient case reports of excessive sweating treated with topiramate
# [2] = system: patients who complained of excessive sweating; assay: Open label study of 26 patients with excessive sweating treated with topiramate; settings: 26 patients (18 females, 8 males), total daily dose 25 mg to 100 mg, subjective assessment and report, all on one or more antidepressant
# Protocol: In an open label study of 26 patients (18 females and 8 males) who complained of excessive sweating were treated with topiramate on the basis of off label prescribing. The patients were informed of the off-label nature of the treatment and they were counseled about the potential side effects of topiramate. The total daily dose ranged from 25 mg to 100 mg. Over 95% of patients experienced a significant response based on their subjective assessment and report. Patients were all adults with an age range from 25 yrs to 79 yrs. All the patients were on one or more antidepressant including various SSRI's with or without Bupropion. However, several of the patients had experienced excessive sweating for other reasons and before the use of antidepressants, even though adding the antidepressant exacerbated their underlying hyperhidrosis. Some of the underlying causes included perimenopause/menopause as well as primary or idiopathic hyperhidrosis. some had identified vulnerability from before, only made worse by antidepressants.
# [3] = system: patients with excessive sweating; assay: Inventor's data and observations in patients with excessive sweating
# From the text: Based on data and observations that the inventor has, they have found topiramate (Topamax®) to have the following, previously undiscovered, beneficial pharmacological effects for patients with excessive sweating: The patient population in which the inventor has seen these benefits included both men and women ranging in age from 25 to 79 years. […] Optionally, the topiramate can be taken as a low dose on an as-needed basis to treat these sweating episodes. […] The inventor became convinced that topiramate was effective in the treatment of excessive sweating. They observed the improvement in patients whose sweating was induced by various antidepressant medications. Some experienced such sweating severity that they had to change their bedding at night as well as their night clothes. Others found it too embarrassing in the day time to the extent that it interfered with their work and social life; and some became reluctant to take their required antidepressant.
# [4] = men and women aged 25 to 79 years
# [5] = patients with excessive sweating
structure (smiles),measurement,setting,value
CC1(C)O[C@@H]2[C@@H](CO[C@@]3(COS(N)(=O)=O)OC(C)(C)O[C@@H]23)O1 [topiramate],"excessive sweating, patient report","[1]; Example 1, a person, Cymbalta 60 mg daily, retrial of topiramate 25 mg twice daily",much better
same,"excessive sweating, patient report","[1]; Example 1, a person, Cymbalta 80 mg daily, topiramate raised from 50 mg daily to 50 mg twice daily","after initial improvement with the topiramate increase, the excessive sweating has recurred"
same,"excessive sweating, patient report","[1]; Example 2, a person, Cymbalta and Wellbutrin XL, topiramate 25 mg daily",much better
same,"adverse effects, patient report","[1]; Example 2, a person, topiramate 25 mg per day",no adverse effects
same,"excessive sweating, patient report","[1]; Example 3, a person, Effexor XR 300 mg daily, topiramate 50 mg daily",much improvement
same,"adverse effects, patient report","[1]; Example 3, a person, topiramate 50 mg daily",no adverse effects
same,"excessive sweating, patient report","[1]; Example 4, a person, Zoloft, topiramate 25 mg twice daily",improved
same,effectiveness when taken on an as needed basis,"[1]; Example 4, a person, Zoloft, topiramate as needed",effective
same,"adverse effects, patient report","[1]; Example 4, a person, topiramate",no adverse effects
same,"excessive sweating, patient report","[1]; Example 5, a person, Wellbutrin XL, Cymbalta, Pristiq, topiramate 50 mg daily",suboptimal improvement
same,"excessive sweating, patient report","[1]; Example 5, a person, topiramate 50 mg twice daily, improvement reported for five months thereafter",satisfactory
same,"excessive perspiration, patient report","[1]; Example 6, a person, Wellbutrin XL and Cymbalta, topiramate 25 mg daily, over eighteen months",satisfactory resolution
same,"adverse effects, patient report","[1]; Example 6, a person, topiramate 25 mg daily, over eighteen months",without any adverse effects
same,"excessive sweating, patient report","[1]; Example 7, a person, Aricept and Cymbalta 30 mg, topiramate 25 mg then 50 mg at bedtime",complete resolution
same,"adverse effects, patient report","[1]; Example 7, a person, topiramate 25 mg then 50 mg at bedtime",no adverse effects
same,patients who experienced a significant response,[2],Over 95%
same,effectiveness against drug-induced hyperhidrosis at low dose,[3]; doses as low as 12.5 mg per day in an adult,highly effective
same,incidence of side effects at low dosage,[3]; low dosage,without significant incidence of those side effects
same,benefit in the patient population,[3]; [4],all benefited
same,side effects in the patient population,[3]; [4],minimal side effects
same,effect on excessive sweating caused by antidepressants and similar medications,[3]; [5],Substantial improvement
same,effect on excessive sweating caused by primary or idiopathic hyperhidrosis,[3]; [5],Substantial improvement
same,effect on excessive sweating from other miscellaneous causes of hyperhidrosis,[3]; [5],Substantial improvement
same,"effect on excessive sweating, idiopathic or drug-induced",[3]; [5],Substantial improvement
same,effectiveness when used on an as needed basis,[3]; [5],effective
